Target: T1, GlyT1 (Homo sapiens, UniProt P48067)
T1 construct: expressed in transfected cells
T1 sequence (P48067 1-706): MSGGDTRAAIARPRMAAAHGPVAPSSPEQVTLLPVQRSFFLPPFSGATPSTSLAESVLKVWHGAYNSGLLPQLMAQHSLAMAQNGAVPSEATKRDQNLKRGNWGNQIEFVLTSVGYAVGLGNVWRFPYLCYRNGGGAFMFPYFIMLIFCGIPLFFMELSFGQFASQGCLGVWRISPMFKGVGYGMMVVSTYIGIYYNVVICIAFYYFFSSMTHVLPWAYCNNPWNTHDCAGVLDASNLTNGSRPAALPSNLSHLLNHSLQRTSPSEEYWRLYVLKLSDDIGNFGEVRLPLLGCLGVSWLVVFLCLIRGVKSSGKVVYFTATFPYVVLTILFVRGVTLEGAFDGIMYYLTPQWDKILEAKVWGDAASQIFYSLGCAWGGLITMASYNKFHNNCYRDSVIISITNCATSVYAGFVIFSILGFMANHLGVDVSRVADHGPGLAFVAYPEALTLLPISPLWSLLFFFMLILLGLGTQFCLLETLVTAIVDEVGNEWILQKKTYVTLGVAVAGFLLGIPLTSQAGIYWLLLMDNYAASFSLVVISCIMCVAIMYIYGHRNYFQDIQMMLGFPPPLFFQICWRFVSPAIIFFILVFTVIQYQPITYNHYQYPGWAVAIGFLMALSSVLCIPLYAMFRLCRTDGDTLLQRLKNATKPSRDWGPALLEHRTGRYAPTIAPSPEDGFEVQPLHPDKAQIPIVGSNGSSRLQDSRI
Assay: Glycine Transporter 1 (GlyT1) uptake assay, scintillation proximity assay of [14C]-glycine uptake
Assay type: cell-based
Settings: SPA, four parameter logistic fit, read-out: GlyT1 (pIC50) (converted)
Summary of the method: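 [14C]-glycine uptake read by scintillation proximity on a plate counter. IC50 from four-parameter logistic fit of dose-response data.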

Structure (SMILES)	IC50 [nM]
CCS(=O)(=O)c1ccc(OC(C)C)c(C(=O)N2Cc3cn(-c4ccc(F)c(C(F)F)c4)nc3C2)c1 [Example 82, 2-[3-(Difluoromethyl)-4-fluorophenyl]-5-[5-(ethanesulfonyl)-2-(propan-2-yloxy)benzoyl]-2H 4H 5H 6H-pyrrolo[3,4-c]pyrazole]	< 100
CCS(=O)(=O)c1ccc(OC(C)C)c(C(=O)N2Cc3cn(-c4cccc(C)c4)nc3C2)c1 [Example 83, 5-[5-(Ethanesulfonyl)-2-(propan-2-yloxy)benzoyl]-2-(3-methylphenyl)-2H 4H 5H 6H-pyrrolo[3,4-c]pyrazole]	< 100
CCS(=O)(=O)c1ccc(OC(C)C)c(C(=O)N2Cc3cn(-c4ccc(F)cc4)nc3C2)c1 [Example 84, 5-[5-(Ethanesulfonyl)-2-(propan-2-yloxy)benzoyl]-2-(4-fluorophenyl)-2H 4H 5H 6H-pyrrolo[3,4-c]pyrazole]	< 100
Cc1cccc(-n2cc3c(n2)CN(C(=O)c2cc(S(C)(=O)=O)ccc2OC(C)C)C3)c1 [Example 85, 5-[5-Methanesulfonyl-2-(propan-2-yloxy)benzoyl]-2-(3-methylphenyl)-2H 4H 5H 6H-pyrrolo[3,4-c]pyrazole]	< 100
CC(C)S(=O)(=O)c1ccc(O[C@@H](C)C(F)(F)F)c(C(=O)N2Cc3cn(-c4cccc(C(F)(F)F)c4F)nc3C2)c1 [Example 86, 2-[2-Fluoro-3-(trifluoromethyl)phenyl]-5-[5-(propane-2-sulfonyl)-2-{[(2S)-1 1 1-trifluoropropan-2-yl]oxy}benzoyl]-2H 4H 5H 6H-pyrrolo[3,4-c]pyrazole]	100 to 1000
Cc1cccc(-n2cc3c(n2)CN(C(=O)c2cc(S(=O)(=O)C(C)C)ccc2O[C@@H](C)C(F)(F)F)C3)c1F [Example 87, 2-(2-Fluoro-3-methylphenyl)-5-[5-(propane-2-sulfonyl)-2-{[(2S)-1 1 1-trifluoropropan-2-yl]oxy}benzoyl]-2H 4H 5H 6H-pyrrolo[3,4-c]pyrazole]	100 to 1000
CC(C)S(=O)(=O)c1ccc(O[C@@H](C)C(F)(F)F)c(C(=O)N2Cc3cn(-c4ccccc4F)nc3C2)c1 [Example 88, 2-(2-Fluorophenyl)-5-[5-(propane-2-sulfonyl)-2-{[(2S)-1 1 1-trifluoropropan-2-yl]oxy}benzoyl]-2H 4H 5H 6H-pyrrolo[3,4-c]pyrazole]	100 to 1000
Cc1cccc(-n2cc3c(n2)CN(C(=O)c2cc(S(=O)(=O)C(C)C)ccc2O[C@@H](C)C(F)(F)F)C3)c1 [Example 89, 2-(3-Methylphenyl)-5-[5-(propane-2-sulfonyl)-2-{[(2S)-1 1 1-trifluoropropan-2-yl]oxy}benzoyl]-2H 4H 5H 6H-pyrrolo[3,4-c]pyrazole]	100 to 1000
CC(C)S(=O)(=O)c1ccc(O[C@@H](C)C(F)(F)F)c(C(=O)N2Cc3cn(-c4ccccc4)nc3C2)c1 [Example 90, 2-Phenyl-5-[5-(propane-2-sulfonyl)-2-{[(2S)-1 1 1-trifluoropropan-2-yl]oxy}benzoyl]-2H 4H 5H 6H-pyrrolo[3,4-c]pyrazole]	100 to 1000
CC(C)S(=O)(=O)c1ccc(O[C@@H](C)C(F)(F)F)c(C(=O)N2Cc3cn(-c4ccc(F)cc4)nc3C2)c1 [Example 91, 2-(4-Fluorophenyl)-5-[5-(propane-2-sulfonyl)-2-{[(2S)-1 1 1-trifluoropropan-2-yl]oxy}benzoyl]-2H 4H 5H 6H-pyrrolo[3,4-c]pyrazole]	100 to 1000
CC(C)S(=O)(=O)c1ccc(O[C@@H](C)C(F)(F)F)c(C(=O)N2Cc3cn(-c4ccc(F)c(F)c4)nc3C2)c1 [Example 92, 2-(3 4-Difluorophenyl)-5-[5-(propane-2-sulfonyl)-2-{[(2S)-1 1 1-trifluoropropan-2-yl]oxy}benzoyl]-2H 4H 5H 6H-pyrrolo[3,4-c]pyrazole]	100 to 1000
CC(C)Oc1ccc(S(=O)(=O)C(C)C)cc1C(=O)N1Cc2cn(-c3cccc(C(F)(F)F)c3F)nc2C1 [Example 93, 2-[2-Fluoro-3-(trifluoromethyl)phenyl]-5-[2-(propan-2-yloxy)-5-(propane-2-sulfonyl)benzoyl]-2H 4H 5H 6H-pyrrolo[3,4-c]pyrazole]	1000 to 10000
Cc1cccc(-n2cc3c(n2)CN(C(=O)c2cc(S(=O)(=O)C(C)C)ccc2OC(C)C)C3)c1F [Example 94, 2-(2-Fluoro-3-methylphenyl)-5-[2-(propan-2-yloxy)-5-(propane-2-sulfonyl)benzoyl]-2H 4H 5H 6H-pyrrolo[3,4-c]pyrazole]	1000 to 10000
CC(C)Oc1ccc(S(=O)(=O)C(C)C)cc1C(=O)N1Cc2cn(-c3ccccc3F)nc2C1 [Example 95, 2-(2-Fluorophenyl)-5-[2-(propan-2-yloxy)-5-(propane-2-sulfonyl)benzoyl]-2H 4H 5H 6H-pyrrolo[3,4-c]pyrazole]	1000 to 10000
Cc1cccc(-n2cc3c(n2)CN(C(=O)c2cc(S(=O)(=O)C(C)C)ccc2OC(C)C)C3)c1 [Example 96, 2-(3-Methylphenyl)-5-[2-(propan-2-yloxy)-5-(propane-2-sulfonyl)benzoyl]-2H 4H 5H 6H-pyrrolo[3,4-c]pyrazole]	1000 to 10000
CC(C)Oc1ccc(S(=O)(=O)C(C)C)cc1C(=O)N1Cc2cn(-c3ccccc3)nc2C1 [Example 97, 2-Phenyl-5-[2-(propan-2-yloxy)-5-(propane-2-sulfonyl)benzoyl]-2H 4H 5H 6H-pyrrolo[3,4-c]pyrazole]	1000 to 10000
CC(C)Oc1ccc(S(=O)(=O)C(C)C)cc1C(=O)N1Cc2cn(-c3ccc(F)cc3)nc2C1 [Example 98, 2-(4-Fluorophenyl)-5-[2-(propan-2-yloxy)-5-(propane-2-sulfonyl)benzoyl]-2H 4H 5H 6H-pyrrolo[3,4-c]pyrazole]	100 to 1000
CC(C)Oc1ccc(S(=O)(=O)C(C)C)cc1C(=O)N1Cc2cn(-c3ccc(F)c(F)c3)nc2C1 [Example 99, 2-(3 4-Difluorophenyl)-5-[2-(propan-2-yloxy)-5-(propane-2-sulfonyl)benzoyl]-2H 4H 5H 6H-pyrrolo[3,4-c]pyrazole]	100 to 1000
Cc1cc(-n2cc3c(n2)CN(C(=O)c2cc(S(C)(=O)=O)ccc2N2CCC(F)(F)CC2)C3)ccn1 [Example 101, 4-{5-[2-(4 4-Difluoropiperidin-1-yl)-5-methanesulfonylbenzoyl]-2H 4H 5H 6H-pyrrolo[3,4-c]pyrazol-2-yl}-2-methylpyridine]	< 100
CS(=O)(=O)c1ccc(OCC(F)(F)F)c(C(=O)N2Cc3cn(-c4ccccc4)nc3C2)c1 [Example 102, 5-[5-Methanesulfonyl-2-(2 2 2-trifluoroethoxy)benzoyl]-2-phenyl-2H 4H 5H 6H-pyrrolo[3,4-c]pyrazole]	< 100
CS(=O)(=O)c1ccc(OCC(F)(F)F)c(C(=O)N2Cc3cn(-c4ccc(F)cc4)nc3C2)c1 [Example 103, 2-(4-Fluorophenyl)-5-[5-methanesulfonyl-2-(2 2 2-trifluoroethoxy)benzoyl]-2H 4H 5H 6H-pyrrolo[3,4-c]pyrazole]	< 100
CS(=O)(=O)c1ccc(OCC(F)(F)F)c(C(=O)N2Cc3cn(-c4ccccc4F)nc3C2)c1 [Example 104, 2-(2-Fluorophenyl)-5-[5-methanesulfonyl-2-(2 2 2-trifluoroethoxy)benzoyl]-2H 4H 5H 6H-pyrrolo[3,4-c]pyrazole]	< 100
Cc1cccc(-n2cc3c(n2)CN(C(=O)c2cc(S(C)(=O)=O)ccc2OCC(F)(F)F)C3)c1 [Example 105, 5-[5-Methanesulfonyl-2-(2 2 2-trifluoroethoxy)benzoyl]-2-(3-methylphenyl)-2H 4H 5H 6H-pyrrolo[3,4-c]pyrazole]	< 100
Cc1cccc(-n2cc3c(n2)CN(C(=O)c2cc(S(C)(=O)=O)ccc2OCC(F)(F)F)C3)c1F [Example 106, 2-(2-Fluoro-3-methylphenyl)-5-[5-methanesulfonyl-2-(2 2 2-trifluoroethoxy)benzoyl]-2H 4H 5H 6H-pyrrolo[3,4-c]pyrazole]	< 100
CS(=O)(=O)c1ccc(-c2cccc(F)c2)c(C(=O)N2Cc3cn(-c4ccc(F)cn4)nc3C2)c1 [Example 107, 5-Fluoro-2-{5-[2-(3-fluorophenyl)-5-methanesulfonylbenzoyl]-2H 4H 5H 6H-pyrrolo[3,4-c]pyrazol-2-yl}pyridine]	< 100
CS(=O)(=O)c1ccc(-c2cccc(F)c2)c(C(=O)N2Cc3cn(-c4cncc(F)c4)nc3C2)c1 [Example 108, 3-Fluoro-5-{5-[2-(3-fluorophenyl)-5-methanesulfonylbenzoyl]-2H 4H 5H 6H-pyrrolo[3,4-c]pyrazol-2-yl}pyridine]	< 100
Cc1cc(-n2cc3c(n2)CN(C(=O)c2cc(S(C)(=O)=O)ccc2-c2cccc(F)c2)C3)ccn1 [Example 109, 4-{5-[2-(3-Fluorophenyl)-5-methanesulfonylbenzoyl]-2H 4H 5H 6H-pyrrolo[3,4-c]pyrazol-2-yl}-2-methylpyridine]	< 100
Cc1cccc(-n2cc3c(n2)CN(C(=O)c2cc(S(C)(=O)=O)ccc2N2CCC(F)(F)CC2)C3)c1 [Example 110, 4 4-Difluoro-1-{4-methanesulfonyl-2-[2-(3-methylphenyl)-2H 4H 5H 6H-pyrrolo[3,4-c]pyrazole-5-carbonyl]phenyl}piperidine]	< 100
